“Also recorded” adds a separate entry of the source. Like-named read-outs stand apart in the source and are kept apart here.
Tests used:
[1] = test system: cultures de tabac; settings: prior art; cited from earlier work
[2] = target: T1, CAD de peuplier (Populus deltoides, UniProt P31657); test: In vitro inhibition of isolated poplar cinnamyl alcohol dehydrogenase (CAD) at 2 mM; format: biochemical; settings: for inhibition at 2000 µM / Inhibition à 2mM %: 2mM, CAD de peuplier; for inhibition at 2000 µM: read-out: Inhibition à 2mM %
T1 construct: CAD de peuplier isolée selon la méthode deSARNI et al,1984; from tissue; host or cells: poplar plant material
T1 sequence (P31657 1-357): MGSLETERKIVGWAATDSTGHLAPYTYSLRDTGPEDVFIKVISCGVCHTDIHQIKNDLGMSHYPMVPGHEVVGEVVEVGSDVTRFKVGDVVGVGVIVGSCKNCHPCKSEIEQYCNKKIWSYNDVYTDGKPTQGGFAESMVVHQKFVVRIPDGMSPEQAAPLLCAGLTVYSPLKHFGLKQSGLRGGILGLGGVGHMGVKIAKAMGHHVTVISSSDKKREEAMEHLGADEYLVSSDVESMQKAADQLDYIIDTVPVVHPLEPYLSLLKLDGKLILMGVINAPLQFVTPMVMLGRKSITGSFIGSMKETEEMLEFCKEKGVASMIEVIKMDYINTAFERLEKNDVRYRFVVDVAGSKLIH
Description: Après réacidification à pH2 par de l'acide chlorhydrique 3N et centrifugation, le surnageant contenant les acides cinnamiques est séparé du résidu. Les "poudres alcool-benzène" ainsi hydrolysées sont lavées par de l'eau distillée jusqu'à pH neutre et séchées, sous vide dans un dessiccateur en présence de silica.-gel. Les teneurs en lignines sont estimées par la méthode gravimétriques de KLASON (Tappi Standard method Tl2m) modifiée par EFFLAND. Tappi, 60, p 143-144, 1977. On rapporte dans le tableau 1) suivant les résultats obtenus concernant l'effet mesuré in vitro d'inhibiteurs selon l'invention à une concentration de 2mM vis-à-vis de la CAD de peuplier isolée selon la méthode deSARNI et al,1984,EUROP JOURNAL OF BIOCHEMISTRY, 18(1),139, 259-265 On indique également dans ce tableau les résultats obtenus avec des composés portant des substitutions différentes de ceux mis enoe uvre dans l'invention. Les chiffres indiqués entre parenthèses a côté des formules correspondent aux composés identifiés dans les exemples de préparation 2 et 3.
On rapporte dans le tableau 2 suivant les pourcentages d'inhibition de la CAD obtenus en utilisant, à raison de 2 mM, différents composés capables de complexer Zn.

[3] = target: T2, CAD (Populus deltoides, UniProt P31657); test: In vitro CAD activity with nitro derivatives, physiological direction (aldehyde reduction, NADPH oxidation at 340 nm); format: biochemical; settings: read-out: % d'inhibition (activité CAD); for inhibition at 230 µM: Concentration finale dans le milieu 0,230 mM; for inhibition at 375 µM: Concentration finale dans le milieu 0,375 mM
T2 sequence (P31657 1-357): T1 sequence (P31657 1-357)
Description: η) Effets des dérivés nitrés sur l'activité CAD "in vitro". Concentration finale % d'inhibition
Les mesures ont été réalisées dans le sens physiologique (aldéhyde alcool), c'est-à-dire en suivant la réduction de l'aldéhyde (oxydation du NADPH mesurée à 340 nm).(Les tests sont plus sensibles et plus proches du milieu "in vivo".

Compound: NOC(Cc1ccccc1)C(=O)O (racemic) [acide D,L-α-aminoxy-β -phényl-propionique]
- réduction des phénols totaux [1]: ~30%

Compound: O=C(O)CSCC(=O)c1ccccc1 [Acide oxo-5-phényl-5-thia-3, reference compound]
- inhibition at 2000 µM [2]: 40%

Compound: O=C(O)CS(=O)(=O)Nc1ccccc1 [NPS, N-(phényl) sulfamoyle]
- inhibition at 2000 µM [2]: 45%

Compound: CC(C)[S+]([O-])Nc1ccccc1 (stereo not shown) [NPSP, N-(phényl) sulfinamoyl d'isopropyle, reference compound]
- inhibition de l'activité CAD (in words) [2]: inefficaces; also recorded: n'inhibent pas
- inhibition at 2000 µM [2]: 0%

Compound: CC(C)(C)OC(=O)CC(=O)Nc1ccccc1 [PCAD, Phényl(carbamoyl) acétate de tertiobutyle, reference compound]
- inhibition at 2000 µM [2]: 0%

Compound: CC(C)(C)OC(=O)C[S+]([O-])Nc1ccccc1 (stereo not shown) [composé 1, N-(phényl)sulfinamoyl acétate de tertiobutyle]
- inhibition at 2000 µM [2]: 50%

Compound: CC(C)(C)OC(=O)CS(=O)(=O)Nc1ccccc1 [composé 7a, N-(phényl)sulfamoyl acétate de tertiobutyle]
- inhibition at 2000 µM [2]: 50%

Compound: CC(C)(C)OC(=O)CS(=O)(=O)NC1CCCCC1 [compound 14, N-(Cyclohexyl)sulfamoyl acétate de tertiobutyle]
- inhibition at 2000 µM [2]: 0%

Compound: CC(C)(C)OC(=O)C(C)(C)[S+]([O-])Nc1ccccc1 (stereo not shown) [compound 15, N-(Phényl)sulfinamoyl isobutyrate de tertiobutyle]
- inhibition at 2000 µM [2]: 0%
- inhibition de l'activité CAD (in words) ([2]; listed as NPSI): inefficaces; also recorded: n'inhibent pas

Compound: CC(C)(C)OC(=O)C[S+]([O-])NC1CCCCC1 (stereo not shown) [compound 17, N-(Cyclohexyl)sulfinamoyl acétate de tertiobutyle]
- inhibition at 2000 µM [2]: 0%

Compound: CC(C)(C)OC(=O)C[S+]([O-])Nc1ccc([N+](=O)[O-])cc1O (stereo not shown) [nitro OH PAS]
- inhibition at 230 µM [3]: 5%
- inhibition at 375 µM [3]: 41%
- inhibition at 500 µM ([3]; Concentration finale dans le milieu 0,500 mM): 100%

Compound: CC(C)(C)OC(=O)C[S+]([O-])Nc1ccc([N+](=O)[O-])cc1 (stereo not shown) [nitro PAS]
- inhibition at 125 µM ([3]; Concentration finale dans le milieu 0,125 mM): 14%
- inhibition at 188 µM ([3]; Concentration finale dans le milieu 0,188 mM): 28%
- inhibition at 230 µM [3]: 68%
- inhibition at 375 µM [3]: 100%

Compound: (Hydroxy-4-methoxy-3-phényl)-3-Hydroxy-3-propanethiate de 5-phényle [HMHP, reference compound]
- Inhibition à 2mM % [2]: 40%

Compound: N-(Thiazolyl-2) Sulfanilamide [NTS, reference compound]
- Inhibition à 2mM % [2]: 55%

Compound: N-tert-butyl-methoxy-2 (Iminomethyl) - 4 phénol [BIP, reference compound]
- Inhibition à 2mM % [2]: 50%

— patent EP0155872A1, “Process for reducing the lignin content of plants, and compositions for putting it into use” (priority 1984, dated 1985)
